# Assay results from paper PMC10331583, “Control of fibrosis with enhanced safety via asymmetric inhibition of prolyl‐tRNA synthetase 1” (EMBO Molecular Medicine, 2023).
# Several values for one entry are separate records, joined by “and”; a condition that tells them apart may be missing. Identical values can stand only once. Like-named read-outs stand apart in the source and are kept apart here.
# Assays:
# [1] = CellTiter‐Glo assay (cytotoxicity); details: human, WI-26 VA4 cells
# Method: (§1) After 24 h, the cells were incubated with various concentrations of compounds for 48 h. The level of ATP as a measure of cell viability was determined using a CellTiter‐Glo® luminescent cell viability assay kit (Promega, G7571) following the manufacturer's instructions.
# (§2) WI‐26 VA4 cells were seeded at 1.2 × 10^4 cells/well in 96‐well white plates. After 24 h, the cells were incubated with the indicated concentrations of compounds for 72 h. The viability was determined as described above.
# WI‐26 VA4 cells [2] = assay: CellTiter‐Glo assay (cytotoxicity); details: for activity at 0.0001 µM / activity at 0.0003 µM / activity at 0.001 µM / activity at 0.003 µM / activity at 0.01 µM / activity at 0.03 µM / activity at 0.1 µM / activity at 0.3 µM / activity at 1 µM / activity at 3 µM / activity at 10 µM / activity at 30 µM / activity at 100 µM: Homo sapiens
# Method: as §1, §2
# WI‐26 VA4 cells [3] = assay: Puromycin incorporation assay; type: cell-based, human; details: for activity at 0.01 µM: WI26VA4, 10 nM; for activity at 0.03 µM: WI26VA4, 30 nM; for activity at 3 µM: WI26VA4, 3000 nM
# Method: After being rinsed with cold PBS twice, the cells were collected and resuspended in 200 μl of the carbonate bicarbonate buffer (Sigma Aldrich, C3041‐50CAP) with protease inhibitor. The cell lysates were obtained by sonication and centrifugation at 20,000 g for 15 min at 4°C. After protein quantification using a Pierce™ BCA Protein Assay Kit (Thermo Fisher Scientific, 23225), 400 ng of the proteins was coated to ELISA plates for 18 h at 4°C. […] The plates were rinsed with the washing buffer for three times after each antibody incubation step. […] The amount of puromycin incorporated in proteins was determined by measuring the absorbance at 450 nm (reference wavelength at 620 nm). Experimental values marked in red with strikethrough text in the Figure Source Data file were excluded from the analysis. These values were determined by considering the values of biological and technical replicates under the same condition, as well as the values at the former and later chemical concentrations.
# [4] = Homo sapiens, read-out: Puromycin, % of control, average
# [5] = Homo sapiens, read-out: Puromycin, % of control, single replicate
structure (smiles),measurement,setting,value
O=C(C[C@H]1NCCC[C@@H]1O)Cn1cnc2ccc(-c3cccc(F)c3)cc21 [DWN11251],CC50 at 72 h,[1],1820 nM
same,activity at 0.0001 µM,"WI‐26 VA4 cells [2]; WI26VA4, read-out: CellTiter-Glo % of control, 0.1 nM, Experiment #1, replicates",92.7%
same,activity at 0.0001 µM,"WI‐26 VA4 cells [2]; WI26VA4, read-out: CellTiter-Glo % of control, 0.1 nM, Experiment #2, replicates",120%
same,activity at 0.0003 µM,"WI‐26 VA4 cells [2]; WI26VA4, read-out: CellTiter-Glo % of control, 0.3 nM, Experiment #1, replicates",111%
same,activity at 0.0003 µM,"WI‐26 VA4 cells [2]; WI26VA4, read-out: CellTiter-Glo % of control, 0.3 nM, Experiment #2, replicates",121%
same,activity at 0.001 µM,"WI‐26 VA4 cells [2]; WI26VA4, read-out: CellTiter-Glo % of control, 1 nM, Experiment #1, replicates",105%
same,activity at 0.001 µM,"WI‐26 VA4 cells [2]; WI26VA4, read-out: CellTiter-Glo % of control, 1 nM, Experiment #2, replicates",107%
same,activity at 0.003 µM,"WI‐26 VA4 cells [2]; WI26VA4, read-out: CellTiter-Glo % of control, 3 nM, Experiment #1, replicates",122%
same,activity at 0.003 µM,"WI‐26 VA4 cells [2]; WI26VA4, read-out: CellTiter-Glo % of control, 3 nM, Experiment #2, replicates",111%
same,activity at 0.01 µM,"WI‐26 VA4 cells [2]; WI26VA4, read-out: CellTiter-Glo % of control, 10 nM, Experiment #1, replicates",100%
same,activity at 0.01 µM,"WI‐26 VA4 cells [2]; WI26VA4, read-out: CellTiter-Glo % of control, 10 nM, Experiment #2, replicates",121%
same,activity at 0.03 µM,"WI‐26 VA4 cells [2]; WI26VA4, read-out: CellTiter-Glo % of control, 30 nM, Experiment #1, replicates",108%
same,activity at 0.03 µM,"WI‐26 VA4 cells [2]; WI26VA4, read-out: CellTiter-Glo % of control, 30 nM, Experiment #2, replicates",124%
same,activity at 0.1 µM,"WI‐26 VA4 cells [2]; WI26VA4, read-out: CellTiter-Glo % of control, 100 nM, Experiment #1, replicates",112%
same,activity at 0.1 µM,"WI‐26 VA4 cells [2]; WI26VA4, read-out: CellTiter-Glo % of control, 100 nM, Experiment #2, replicates",126%
same,activity at 0.3 µM,"WI‐26 VA4 cells [2]; WI26VA4, read-out: CellTiter-Glo % of control, 300 nM, Experiment #1, replicates",98.2%
same,activity at 0.3 µM,"WI‐26 VA4 cells [2]; WI26VA4, read-out: CellTiter-Glo % of control, 300 nM, Experiment #2, replicates",105%
same,activity at 1 µM,"WI‐26 VA4 cells [2]; WI26VA4, read-out: CellTiter-Glo % of control, 1000 nM, Experiment #1, replicates",73.2%
same,activity at 1 µM,"WI‐26 VA4 cells [2]; WI26VA4, read-out: CellTiter-Glo % of control, 1000 nM, Experiment #2, replicates",76.4%
same,activity at 3 µM,"WI‐26 VA4 cells [2]; WI26VA4, read-out: CellTiter-Glo % of control, 3000 nM, Experiment #1, replicates",36.1%
same,activity at 3 µM,"WI‐26 VA4 cells [2]; WI26VA4, read-out: CellTiter-Glo % of control, 3000 nM, Experiment #2, replicates",46.1%
same,activity at 10 µM,"WI‐26 VA4 cells [2]; WI26VA4, read-out: CellTiter-Glo % of control, 10000 nM, Experiment #1, replicates",26.6%
same,activity at 10 µM,"WI‐26 VA4 cells [2]; WI26VA4, read-out: CellTiter-Glo % of control, 10000 nM, Experiment #2, replicates",30%
same,activity at 30 µM,"WI‐26 VA4 cells [2]; WI26VA4, read-out: CellTiter-Glo % of control, 30000 nM, Experiment #1, replicates",12.4%
same,activity at 30 µM,"WI‐26 VA4 cells [2]; WI26VA4, read-out: CellTiter-Glo % of control, 30000 nM, Experiment #2, replicates",11.9%
same,activity at 100 µM,"WI‐26 VA4 cells [2]; WI26VA4, read-out: CellTiter-Glo % of control, 100000 nM, Experiment #1, replicates",1.59%
same,activity at 100 µM,"WI‐26 VA4 cells [2]; WI26VA4, read-out: CellTiter-Glo % of control, 100000 nM, Experiment #2, replicates",0.95%
same,activity at 0.0001 µM,"WI‐26 VA4 cells [2]; WI26VA4, read-out: CellTiter-Glo % of control, average, 0.1 nM, average",110%
same,activity at 0.0003 µM,"WI‐26 VA4 cells [2]; WI26VA4, read-out: CellTiter-Glo % of control, average, 0.3 nM, average",116%
same,activity at 0.001 µM,"WI‐26 VA4 cells [2]; WI26VA4, read-out: CellTiter-Glo % of control, average, 1 nM, average",108%
same,activity at 0.003 µM,"WI‐26 VA4 cells [2]; WI26VA4, read-out: CellTiter-Glo % of control, average, 3 nM, average",112%
same,activity at 0.01 µM,"WI‐26 VA4 cells [2]; WI26VA4, read-out: CellTiter-Glo % of control, average, 10 nM, average",113%
same,activity at 0.03 µM,"WI‐26 VA4 cells [2]; WI26VA4, read-out: CellTiter-Glo % of control, average, 30 nM, average",119%
same,activity at 0.1 µM,"WI‐26 VA4 cells [2]; WI26VA4, read-out: CellTiter-Glo % of control, average, 100 nM, average",119%
same,activity at 0.3 µM,"WI‐26 VA4 cells [2]; WI26VA4, read-out: CellTiter-Glo % of control, average, 300 nM, average",101%
same,activity at 1 µM,"WI‐26 VA4 cells [2]; WI26VA4, read-out: CellTiter-Glo % of control, average, 1000 nM, average",76.7%
same,activity at 3 µM,"WI‐26 VA4 cells [2]; WI26VA4, read-out: CellTiter-Glo % of control, average, 3000 nM, average",41.3%
same,activity at 10 µM,"WI‐26 VA4 cells [2]; WI26VA4, read-out: CellTiter-Glo % of control, average, 10000 nM, average",29%
same,activity at 30 µM,"WI‐26 VA4 cells [2]; WI26VA4, read-out: CellTiter-Glo % of control, average, 30000 nM, average",14.4%
same,activity at 100 µM,"WI‐26 VA4 cells [2]; WI26VA4, read-out: CellTiter-Glo % of control, average, 100000 nM, average",1.22%
same,CellTiter-Glo LogIC50 (best-fit value),"WI‐26 VA4 cells [2]; log(inhibitor) vs. response, variable slope (four parameters), concentration in nM",3.259
same,"Puromycin, % of control, single replicate","WI‐26 VA4 cells [3]; 10 nM, 0.01 µM",101.25 % of control and 94.41 % of control and 100.93 % of control and 102.37 % of control and 93.16 % of control and 112.99 % of control and 111.09 % of control and 112.68 % of control
same,"Puromycin, % of control, single replicate","WI‐26 VA4 cells [3]; 30 nM, 0.03 µM",103.89 % of control and 102.07 % of control and 109.54 % of control and 108.35 % of control and 99.59 % of control and 116.49 % of control and 113.07 % of control and 114.50 % of control
same,"Puromycin, % of control, single replicate","WI‐26 VA4 cells [3]; 100 nM, 0.1 µM",103.01 % of control and 100.87 % of control and 101.28 % of control and 109.49 % of control and 107.49 % of control and 101.40 % of control and 114.53 % of control and 111.00 % of control and 121.31 % of control
same,"Puromycin, % of control, single replicate","WI‐26 VA4 cells [3]; 300 nM, 0.3 µM",88.40 % of control and 85.23 % of control and 87.58 % of control and 94.28 % of control and 93.99 % of control and 87.62 % of control and 94.72 % of control and 94.55 % of control and 109.57 % of control
same,"Puromycin, % of control, single replicate","WI‐26 VA4 cells [3]; 1000 nM, 1 µM",106.50 % of control and 101.49 % of control and 107.47 % of control and 104.76 % of control and 102.45 % of control and 95.18 % of control and 122.63 % of control and 109.16 % of control and 107.56 % of control
same,"Puromycin, % of control, single replicate","WI‐26 VA4 cells [3]; 3000 nM, 3 µM",61.69 % of control and 62.47 % of control and 62.84 % of control and 57.24 % of control
same,"Puromycin, % of control, single replicate","WI‐26 VA4 cells [3]; 10000 nM, 10 µM",19.53 % of control and 20.29 % of control and 21.78 % of control and 23.63 % of control and 20.64 % of control and 21.23 % of control and 21.73 % of control and 22.58 % of control
same,"Puromycin, % of control, single replicate","WI‐26 VA4 cells [3]; 30000 nM, 30 µM",0.45 % of control and 0.66 % of control and 0.0147 % of control and 1.69 % of control and 1.62 % of control and 0.33 % of control and 0.81 % of control and 1.20 % of control and -0.12 % of control
same,activity at 0.01 µM,WI‐26 VA4 cells [3]; [4],103%
same,activity at 0.01 µM,WI‐26 VA4 cells [3]; [5],99.1%
same,activity at 0.03 µM,WI‐26 VA4 cells [3]; [4],108%
same,activity at 0.03 µM,WI‐26 VA4 cells [3]; [5],108%
same,activity at 0.1 µM,"WI‐26 VA4 cells [3]; Homo sapiens, WI26VA4, 100 nM, read-out: Puromycin, % of control, average",108%
same,activity at 0.3 µM,"WI‐26 VA4 cells [3]; Homo sapiens, WI26VA4, 300 nM, read-out: Puromycin, % of control, average",92.9%
same,activity at 1 µM,"WI‐26 VA4 cells [3]; Homo sapiens, WI26VA4, 1000 nM, read-out: Puromycin, % of control, average",106%
same,activity at 3 µM,WI‐26 VA4 cells [3]; [4],60.8%
same,activity at 3 µM,WI‐26 VA4 cells [3]; [5],59.6%
same,activity at 10 µM,"WI‐26 VA4 cells [3]; Homo sapiens, WI26VA4, 10000 nM, read-out: Puromycin, % of control, average",21.3%
